Here are results for 90 molecules from a melting point compilation (Tetko et al.; mined from patent text by program, amines drawn as free bases though some values may be those of a salt).

One may read the melting point as the temperature of the solid-liquid transition.

Bounds are passed on as bounds.

`N#Cc1ccc(-c2ccccc2F)c(F)c1` had a melting point of 78 to 79 °C.

Take `COC(=O)/C=C/n1cnc2c(OC)cc(OC)cc2c1=O`: the melting point was in the range of 224 to 226 °C. With `COc1ccc2c(c1)c(-c1cc3c(-c4c(C)noc4C)ccnc3[nH]1)cn2C`, the melting point lay within 254 to 255 °C.

On to `CCCCC[C@H]1CC[C@H](c2ccc(F)c(F)c2)CC1`, for which the melting point is -9.5 °C. Regarding `COc1cc2nc(N)nc(-c3ccc(O)cc3)c2cc1OC`, the melting point was in the range of 245 to 248 °C.

Molecule `S=C(NC(=S)c1c(Cl)cccc1Cl)Nc1ccc(Cl)c(Cl)c1` yielded a melting point of 168 to 170 °C. As for `CN(C)C(=O)N1CCc2ccc(S(N)(=O)=O)cc2CC1`, the melting point fell in the range of 192 to 193 °C. `CCOC(=O)C1=C(C)NC(C)=C(C(=O)c2ccco2)C1c1ccccc1[N+](=O)[O-]` (stereo not given) came in with a melting point of 133 to 134 °C. Under `CC(CS)C(=O)N(CC(=O)O)CC1CCCO1` (stereo not given) stands 128 to 130 °C.

Molecule `O=C(O)c1ccc(NCCCCCCCc2ccccc2)cc1` gave a melting point of 123 to 126 °C. With `CCOC(=O)c1ncn2c1[C@@H]1CCN1C(=O)c1c-2ccc(F)c1F`, the melting point is 234 to 236 °C. For `CC(C)N1CC(c2nnc(Cc3ccc(F)cc3)o2)=C(O)C1=O`, the melting point lay in the range of 204 to 206 °C. With `CSc1cc(C(=O)O)ccc1C` the figure was 175 °C; with `CNC(=S)C1(c2ccc(Cl)c(Cl)c2)CCCCS1` (stereo not given), 116 to 117 °C.

`CC(C)c1ccc(N(Cc2cnn(C3CCCC3)c2)C(=O)C2CCCc3c(O)cccc32)cc1` (stereo not given) showed a melting point of 173 °C. Regarding `CN(CCc1ccccc1)C1CCN(C(=O)c2ccc(-n3cncn3)nc2)CC1`, the melting point was in the range of 85 to 86 °C.

Turning to `N#CC1=C(c2ccccc2)Nc2n[nH]cc2C1c1cccc2c1OCCC2` (stereo not given), the melting point came to 255 °C. Under `CCOC(=O)C1=C(C)NC(=S)N(C(=O)OC(C)C)C1c1cccc(Cl)c1Cl` (stereo not given) stands 157 to 159 °C; under `FC(F)C(F)(F)Oc1cccc(Nc2nccc(-c3ccnc(Cl)c3)n2)c1`, 150 to 153 °C; under `CC(C)(C)c1ccc(C(=O)Nc2cn3cc(-c4cccnc4)ccc3n2)cc1`, 288 to 289 °C. Regarding `COc1ccc(-c2ccc3c(c2)C2(CO3)C(=O)N(Cc3ccc(Cl)s3)c3ccccc32)cn1` (stereo not given), the melting point was in the range of 60 to 62 °C. Under `Cc1c(C(=O)O)nnn1Cc1ccccc1Cl` stands 186 to 187 °C; under `Cc1ccc(C(=O)COc2cc(C)cc(C)c2C)cc1`, 94 to 95 °C.

The molecule `COCOCC#Cc1nc(-c2ccc(=O)n(C(C)C)n2)c(-c2ccccc2)nc1N` yielded a melting point of 133 to 135 °C. With `C=CCC(CC=C)(C(=O)NO)S(=O)(=O)c1ccc(OC)cc1` the figure was 114 to 116 °C; with `CCc1c(Oc2cc(C)cc(C)c2)n(COCc2ccccc2)c(=O)[nH]c1=O`, 146 to 150 °C. The molecule `COc1ncnc(OC)c1CON=C(C)c1cc(C)cc(C)n1` gave a melting point of 125 to 126 °C. In turn, `Cc1c(C)c2c(c(C)c1N)[C@H](c1ccc(C(C)C)cc1)[C@H](C)O2` (relative stereo) had a melting point of 91 to 92 °C. The molecule `OCc1nc(/C=C/c2ccccc2)ns1` yielded a melting point of 119 to 120 °C.

With `c1ccc(N2CCN(c3nn(-c4ccccc4)c4ccccc34)CC2)cc1`, the melting point was in the range of 129 to 130 °C.

`CCCSC1=Nc2ccccc2SN1`: the melting point was 168 to 170 °C. Consider `Cc1c(N)cc(Cl)cc1N`, for which the melting point is 75 to 77 °C. On to `O=C(Nc1ccccc1)NC1CCCCC1`, for which the melting point came to 164 °C. Regarding `CCOc1cc2cc3c(Nc4cc(OC)c(Cl)cc4C)c(C#N)cnc3cc2cc1OCCCl`, the melting point lay in the range of 129 to 130 °C. The molecule `COC(=O)c1c(C(=O)O)c(O)c2cc(OC)c(OC)c(OC)c2c1-c1cc(OC)c(OC)c(OC)c1` showed a melting point of 167 to 171 °C. Turning to `COC(SC)C(=O)c1[nH]c2cc(Br)c(Cl)cc2c1-c1ccccc1` (stereo not given), the melting point lay in the range of 145 to 147 °C. Under `COc1ccc(Cn2c(=O)oc(=O)c3ccccc32)cc1` stands 143 °C. With `CCCN1CCC23c4cccc(O)c4OC2C2CCC3(C1)C(CSC)C2` (stereo not given) the figure was 152 to 153 °C; with `CCn1nc2c(OC)nc3ccccc3c2c1CO`, 219 to 220 °C; with `COc1c(C)cc(-c2c3ccccc3c(C)c3sc4ccccc4c23)cc1C`, 154 to 156 °C.

In turn, `CC(C)c1ccc(N(C)C)c(C(C)C)c1NC(=O)CN1CCN(CCSc2nc3ccccc3o2)CC1` yielded a melting point of 159 to 161 °C. Regarding `CN(C)C(=O)C(CCO)C1(C)CCCc2c1[nH]c1ccccc21` (stereo not given), the melting point is 145 to 146 °C.

In turn, `CCc1[nH]c(=S)n(Nc2cccc(Cl)c2)c1-c1ccccc1` yielded a melting point of 116 to 118 °C.

On to `Cc1nc(-c2ccc3c(c2)CCCC3)c(Br)o1`, for which the melting point is 97 to 98 °C.

With `CS(=O)(=O)c1cc(C(F)(F)F)ccc1C(=O)O`, the melting point worked out at 156 °C. `O=C(NC1N=C(c2ccccc2)c2ccccc2NC1=O)c1ccc(-c2ccccc2)cc1` (racemic): the melting point is 274 to 276 °C. With `Cc1c(CCBr)c2cccc3c2n1CCS3`, the melting point turned out to be 94 °C. `CC(C)C[C@H](NC(=O)[C@@H]1CCCN1C(=O)[C@@H](N)CSCc1ccccc1)C(=O)NCC(N)=O` registered a melting point of 130 to 134 °C. In the case of `CC(=NNc1ccc(-c2n[nH]c(=O)cc2C)cc1)c1ccc(O)cc1O`, the melting point was 299 to 303 °C. Under `COc1ccc(C(C)(C)C)c(O)c1C(=O)Nc1ccc(S(=O)(=O)C(F)(F)F)cc1Cl` stands 198 to 199 °C. `COC(=O)COc1noc2ccc([N+](=O)[O-])cc12` returned a melting point of 72 to 73.5 °C.

`COC(=O)N1C2CCC1CC(=O)C2` displayed a melting point of 60 to 61 °C.

With `CNS(=O)(=O)c1cn(C)c2c(OC)c(OC)c(OC)cc2c1=O`, the melting point is 184 to 186 °C. `CCCc1nc2c(nc1O)CCCC2` showed a melting point of 131 to 133 °C.

`CC12CC(=O)C3C(CCC4CC(O)CCC43C)C1CCC2C(=O)CBr` (stereo not given): the melting point fell in the range of 160 to 163 °C. As to `Cc1sc(C)c2c(=O)n3cc(C(N)=O)ccc3nc12`, the melting point lay in the range of 272 to 275 °C.

The molecule `O=C(Cc1ccccc1)Nc1ccc(CN2C(=O)[C@H]3CCC[C@H]3N(C(=O)CN3C(=O)c4ccccc4C3=O)c3ccccc32)cc1` (relative stereo) gave a melting point of 143 to 145 °C. For the molecule `CC(O)C#CC1CCC2C3CCC4CC(O[Si](c5ccccc5)(c5ccccc5)C(C)(C)C)CCC4(C)C3CCC12C` (stereo not given), the melting point was in the range of 68 to 70 °C. The molecule `CC(=O)c1ncn(-c2ccccc2)n1` showed a melting point of 174 to 176 °C. `C=CCONc1nc(NC=O)nc(Cl)c1NC=O` showed a melting point of 170 to 181 °C. On to `O=S(=O)(C(=CNc1ccccc1)S(=O)(=O)c1ccccc1)c1ccccc1`, for which the melting point lay within 199 to 202 °C. Turning to `Cc1ccc(NC2CCOC2=O)c(C(=O)O)c1` (stereo not given), the melting point lay in the range of 199 to 200 °C. `CCOC(=O)N(c1ccc(Cl)cc1)c1ccccc1-n1nc(C(=O)O)nc1CCl` gave a melting point of 190 to 192 °C.

Molecule `Cc1c(Sc2ccc(Cl)cc2)nn(-c2ccc(O)cc2)c(=O)c1C#N` came in with a melting point of 261 to 263 °C. In turn, `N#Cc1ccc(-c2ccc(C#N)c(N)c2)cc1N` showed a melting point of 243 °C. For `NCc1cccc(OCCSc2nc[nH]n2)c1`, the melting point is > 300 °C. Take `COc1ccc(Cn2c(C)cc3c(=O)[nH][nH]c(=O)c32)cc1`: the melting point was 300 °C.

Molecule `CC(C)(C)OC(=O)N1C(=O)C(Br)=C(c2cn(C(=O)OC(C)(C)C)c3ccc(OCc4ccccc4)cc23)C1=O` had a melting point of 134 °C. Molecule `CC(C)CNC(=O)C1=C(C(=O)Nc2cc(OC3CCC(C)C3)c(Cl)cc2F)CCCC1` (stereo not given) showed a melting point of 144 to 147 °C.

`COC(=O)c1c(NC(C)=O)sc2c1CCC(C(C)(C)C)C2` (stereo not given) had a melting point of 117 to 118 °C. As for `O=C(NC1CCN(CCc2ccc3ccccc3c2)CC1)c1ccccc1`, the melting point lay within 189 to 191 °C. With `Cc1nnc(C(F)(F)F)n1-c1ccccc1` the figure was 118 °C; with `CCOC(=O)c1ccc(NC(=O)C=C(c2ccc(C)cc2)c2ccc(C)cc2)cc1`, 151 to 154 °C; with `COc1cc(Cn2ccc3ncnc-3c2)ccc1C(=O)N(C1CCCC1)C1CC(C)CC(C)C1` (stereo not given), 218 to 220 °C.

In turn, `CC(O)C#Cc1cc(C(C)Nc2nc(N)nc(C(C)(C)F)n2)ccc1F` (stereo not given) had a melting point of 119 to 122 °C.

As to `O=C(O)CCCOc1cccc(C2CCCCC2)c1`, the melting point was in the range of 83 to 84 °C. Molecule `CC1=C(C)C(=O)C(CC[C@](C)(O)CO)=C(C)C1=O` had a melting point of 109 to 112 °C. For the molecule `O=C(Cc1ccccc1Nc1c(Cl)cccc1Cl)OCc1ccncc1`, the melting point lay in the range of 121 to 123 °C.

In turn, `CC(=O)N(C(=O)N1CC(c2ccc(Cl)cc2)C(c2ccc(Cl)cc2)=N1)c1ccc(C(F)(F)F)cc1` (stereo not given) gave a melting point of 166 to 168 °C. With `O=C(COC1CCCCCCCCCCC1)C1=C(O)CSC1=O` the figure was 93 to 95 °C; with `CC(C)(C)c1ccc(C(O)CCCN2CCC(C(O)(c3ccccc3)c3ccc(C(C)(C)C)cc3)CC2)cc1` (stereo not given), 179 to 182 °C; with `CC(=S)NC[C@H]1CN(c2ccc3c(c2)C[C@@H](C)N3C(=O)CO)C(=O)O1`, 115 to 117 °C.

Regarding `COc1cc(N2C(=S)N3CCCCC3C2O)c(F)cc1Cl` (stereo not given), the melting point was 208 to 215 °C.

In the case of `FC(F)(F)Oc1ccc(-n2ccc(CBr)n2)cc1`, the melting point was 71 to 73 °C. `Cn1nc(C(=O)NCc2ccc(Cl)cc2)c(=O)c2cc(C#CCCO)ccc21` displayed a melting point of 227 to 229 °C. For `CCOC(=O)N1C[C@H](O)C[C@H]1CCOc1ccc(Br)cc1CCc1ccccc1`, the melting point fell in the range of 63 to 66 °C. Molecule `CCCSc1nc(NC2CC2c2cccc(N)c2)c2nnn(C3CC(O)C(O)C3O)c2n1` (stereo not given) had a melting point of 105 to 107 °C. Molecule `COc1cc(OC)nc(Oc2cccc3c2C(=O)SC3C)n1` (stereo not given) came in with a melting point of 157 to 159 °C. Regarding `CC(=O)ON=C(N)c1cccc(OC(C)=O)c1`, the melting point worked out at 128 °C. For the molecule `N#CCSc1ncc2ccccn12`, the melting point is 120 to 122 °C.
